Experimental data: ChEMBL document CHEMBL3217532, “New analyses of MIC90 data to aid antibacterial drug discovery” (2011)
Values after ≈ are worked out from the molar mass of the structure shown. Blank lines part the entries; values can stand above or below the molecule they belong to.

Key:
Type in all cases: functional
[1] = test system: Pseudomonas aeruginosa; test: Antimicrobial activity against Pseudomonas aeruginosa PA-4624
[2] = test system: Pseudomonas aeruginosa; test: Antimicrobial activity against Pseudomonas aeruginosa PA-4991
[3] = test system: Pseudomonas aeruginosa; test: Antimicrobial activity against Pseudomonas aeruginosa 1954-00
[4] = test system: Pseudomonas aeruginosa; test: Antimicrobial activity against Pseudomonas aeruginosa 1619-08
[5] = test system: Pseudomonas aeruginosa; test: Antimicrobial activity against Pseudomonas aeruginosa PA-4997
[6] = test system: Pseudomonas aeruginosa; test: Antimicrobial activity against Pseudomonas aeruginosa 1527-08
[7] = test system: Pseudomonas aeruginosa; test: Antimicrobial activity against Pseudomonas aeruginosa 1569-05
[8] = test system: Pseudomonas aeruginosa; test: Antimicrobial activity against Pseudomonas aeruginosa PA-4990
[9] = test system: Pseudomonas aeruginosa; test: Antimicrobial activity against Pseudomonas aeruginosa 1752-00
[10] = test system: Pseudomonas aeruginosa; test: Antimicrobial activity against Pseudomonas aeruginosa 1515-08
[11] = test system: Pseudomonas aeruginosa; test: Antimicrobial activity against Pseudomonas aeruginosa 1764-00
[12] = test system: Pseudomonas aeruginosa; test: Antimicrobial activity against Pseudomonas aeruginosa 1955-00
[13] = test system: Pseudomonas aeruginosa; test: Antimicrobial activity against Pseudomonas aeruginosa PA-75
[14] = test system: Pseudomonas aeruginosa; test: Antimicrobial activity against Pseudomonas aeruginosa 1563-00
[15] = test system: Pseudomonas aeruginosa; test: Antimicrobial activity against Pseudomonas aeruginosa 1951-00
[16] = test system: Pseudomonas aeruginosa; test: Antimicrobial activity against Pseudomonas aeruginosa 1953-00
[17] = test system: Pseudomonas aeruginosa; test: Antimicrobial activity against Pseudomonas aeruginosa 1509-08
[18] = test system: Pseudomonas aeruginosa; test: Antimicrobial activity against Pseudomonas aeruginosa 1512-08
[19] = test system: Pseudomonas aeruginosa; test: Antimicrobial activity against Pseudomonas aeruginosa 1568-05
[20] = test system: Pseudomonas aeruginosa; test: Antimicrobial activity against Pseudomonas aeruginosa 1565-05
[21] = test system: Pseudomonas aeruginosa; test: Antimicrobial activity against Pseudomonas aeruginosa 1510-08
[22] = test system: Pseudomonas aeruginosa; test: Antimicrobial activity against Pseudomonas aeruginosa 1753-00
[23] = test system: Pseudomonas aeruginosa; test: Antimicrobial activity against Pseudomonas aeruginosa PA-4995
[24] = test system: Pseudomonas aeruginosa; test: Antimicrobial activity against Pseudomonas aeruginosa 1513-08
[25] = test system: Pseudomonas aeruginosa; test: Antimicrobial activity against Pseudomonas aeruginosa 1613-09
[26] = test system: Pseudomonas aeruginosa; test: Antimicrobial activity against Pseudomonas aeruginosa 1952-00
[27] = test system: Pseudomonas aeruginosa; test: Antimicrobial activity against Pseudomonas aeruginosa 1612-09
[28] = test system: Pseudomonas aeruginosa; test: Antimicrobial activity against Pseudomonas aeruginosa 1765-00
[29] = test system: Pseudomonas aeruginosa; test: Antimicrobial activity against Pseudomonas aeruginosa 1760-00
[30] = test system: Pseudomonas aeruginosa; test: Antimicrobial activity against Pseudomonas aeruginosa 1957-00
[31] = test system: Pseudomonas aeruginosa; test: Antimicrobial activity against Pseudomonas aeruginosa 1567-05
[32] = test system: Pseudomonas aeruginosa; test: Antimicrobial activity against Pseudomonas aeruginosa 1766-00
[33] = test system: Pseudomonas aeruginosa; test: Antimicrobial activity against Pseudomonas aeruginosa 1514-08
[34] = test system: Pseudomonas aeruginosa; test: Antimicrobial activity against Pseudomonas aeruginosa 1561-05
[35] = test system: Pseudomonas aeruginosa; test: Antimicrobial activity against Pseudomonas aeruginosa 1564-05
[36] = test system: Pseudomonas aeruginosa; test: Antimicrobial activity against Pseudomonas aeruginosa 1761-00
[37] = test system: Pseudomonas aeruginosa; test: Antimicrobial activity against Pseudomonas aeruginosa PA-4999
[38] = test system: Pseudomonas aeruginosa; test: Antimicrobial activity against Pseudomonas aeruginosa 1614-09
[39] = test system: Pseudomonas aeruginosa; test: Antimicrobial activity against Pseudomonas aeruginosa 1956-00
[40] = test system: Pseudomonas aeruginosa; test: Antimicrobial activity against Pseudomonas aeruginosa 1566-05
[41] = test system: Pseudomonas aeruginosa; test: Antimicrobial activity against Pseudomonas aeruginosa 1521-08
[42] = test system: Pseudomonas aeruginosa; test: Antimicrobial activity against Pseudomonas aeruginosa 1615-09
[43] = test system: Pseudomonas aeruginosa; test: Antimicrobial activity against Pseudomonas aeruginosa 1767-00
[44] = test system: Pseudomonas aeruginosa; test: Antimicrobial activity against Pseudomonas aeruginosa 1611-09
[45] = test system: Pseudomonas aeruginosa; test: Antimicrobial activity against Pseudomonas aeruginosa 1570-05
[46] = test system: Pseudomonas aeruginosa; test: Antimicrobial activity against Pseudomonas aeruginosa 1562-05
[47] = test system: Pseudomonas aeruginosa; test: Antimicrobial activity against Pseudomonas aeruginosa 1523-08
[48] = test system: Pseudomonas aeruginosa; test: Antimicrobial activity against Pseudomonas aeruginosa PA-4993
[49] = test system: Pseudomonas aeruginosa; test: Antimicrobial activity against Pseudomonas aeruginosa 1768-00
[50] = test system: Pseudomonas aeruginosa; test: Antimicrobial activity against Pseudomonas aeruginosa PA-1757
[51] = test system: Pseudomonas aeruginosa; test: Antimicrobial activity against Pseudomonas aeruginosa 1526-08

Structure (SMILES): CC1(C)[C@H](NC(=O)/C(=N\OCc2cc(=O)c(O)cn2O)c2csc(N)n2)C(=O)N1OS(=O)(=O)O
MIC90 [1]: 1 µg/mL (≈ 1.93 µM)
MIC90 [2]: 1 µg/mL (≈ 1.93 µM)
MIC90 [3]: 0.25 µg/mL (≈ 0.482 µM)
MIC90 [4]: 0.06 µg/mL (≈ 0.116 µM)
MIC90 [5]: 1 µg/mL (≈ 1.93 µM)
MIC90 [6]: 1 µg/mL (≈ 1.93 µM)
MIC90 [7]: 1 µg/mL (≈ 1.93 µM)
MIC90 [8]: 0.5 µg/mL (≈ 0.964 µM)
MIC90 [9]: 1 µg/mL (≈ 1.93 µM)
MIC90 [10]: 1 µg/mL (≈ 1.93 µM)
MIC90 [11]: 0.5 µg/mL (≈ 0.964 µM)
MIC90 [12]: 0.5 µg/mL (≈ 0.964 µM)
MIC90 [13]: 0.5 µg/mL (≈ 0.964 µM)
MIC90 [14]: 0.5 µg/mL (≈ 0.964 µM)
MIC90 [15]: 1 µg/mL (≈ 1.93 µM)
MIC90 [16]: 1 µg/mL (≈ 1.93 µM)
MIC90 [17]: 2 µg/mL (≈ 3.86 µM)
MIC90 [18]: 0.5 µg/mL (≈ 0.964 µM)
MIC90 [19]: 0.5 µg/mL (≈ 0.964 µM)
MIC90 [20]: 0.5 µg/mL (≈ 0.964 µM)
MIC90 [21]: 8 µg/mL (≈ 15.4 µM)
MIC90 [22]: 4 µg/mL (≈ 7.71 µM)
MIC90 [23]: 0.5 µg/mL (≈ 0.964 µM)
MIC90 [24]: 1 µg/mL (≈ 1.93 µM)
MIC90 [25]: 0.5 µg/mL (≈ 0.964 µM)
MIC90 [26]: 1 µg/mL (≈ 1.93 µM)
MIC90 [27]: 16 µg/mL (≈ 30.9 µM)
MIC90 [28]: 4 µg/mL (≈ 7.71 µM)
MIC90 [29]: 1 µg/mL (≈ 1.93 µM)
MIC90 [30]: 0.25 µg/mL (≈ 0.482 µM)
MIC90 [31]: 0.5 µg/mL (≈ 0.964 µM)
MIC90 [32]: 0.5 µg/mL (≈ 0.964 µM)
MIC90 [33]: 2 µg/mL (≈ 3.86 µM)
MIC90 [34]: 2 µg/mL (≈ 3.86 µM)
MIC90 [35]: 0.5 µg/mL (≈ 0.964 µM)
MIC90 [36]: 4 µg/mL (≈ 7.71 µM)
MIC90 [37]: 1 µg/mL (≈ 1.93 µM)
MIC90 [38]: 0.5 µg/mL (≈ 0.964 µM)
MIC90 [39]: 0.5 µg/mL (≈ 0.964 µM)
MIC90 [40]: 1 µg/mL (≈ 1.93 µM)
MIC90 [41]: 2 µg/mL (≈ 3.86 µM)
MIC90 [42]: 1 µg/mL (≈ 1.93 µM)
MIC90 [43]: 0.5 µg/mL (≈ 0.964 µM)
MIC90 [44]: 0.125 µg/mL (≈ 0.241 µM)
MIC90 [45]: 0.5 µg/mL (≈ 0.964 µM)
MIC90 [46]: 1 µg/mL (≈ 1.93 µM)
MIC90 [47]: 1 µg/mL (≈ 1.93 µM)
MIC90 [48]: 0.5 µg/mL (≈ 0.964 µM)
MIC90 [49]: 0.5 µg/mL (≈ 0.964 µM)
MIC90 [50]: 8 µg/mL (≈ 15.4 µM)
MIC90 [51]: 0.5 µg/mL (≈ 0.964 µM)

MIC90 [1]: 0.25 µg/mL (≈ 0.343 µM)
MIC90 [2]: 0.125 µg/mL (≈ 0.172 µM)
MIC90 [3]: 0.015 µg/mL (≈ 0.0206 µM)
MIC90 [4]: 0.015 µg/mL (≈ 0.0206 µM)
MIC90 [5]: 0.125 µg/mL (≈ 0.172 µM)
MIC90 [6]: 0.125 µg/mL (≈ 0.172 µM)
MIC90 [7]: 0.25 µg/mL (≈ 0.343 µM)
MIC90 [8]: 0.25 µg/mL (≈ 0.343 µM)
MIC90 [9]: 0.125 µg/mL (≈ 0.172 µM)
MIC90 [10]: 0.125 µg/mL (≈ 0.172 µM)
MIC90 [11]: 0.06 µg/mL (≈ 0.0823 µM)
MIC90 [12]: 0.06 µg/mL (≈ 0.0823 µM)
MIC90 [13]: 0.25 µg/mL (≈ 0.343 µM)
MIC90 [14]: 0.06 µg/mL (≈ 0.0823 µM)
MIC90 [15]: 0.125 µg/mL (≈ 0.172 µM)
MIC90 [16]: 0.25 µg/mL (≈ 0.343 µM)
MIC90 [17]: 1 µg/mL (≈ 1.37 µM)
MIC90 [18]: 0.125 µg/mL (≈ 0.172 µM)
MIC90 [19]: 0.125 µg/mL (≈ 0.172 µM)
MIC90 [20]: 0.25 µg/mL (≈ 0.343 µM)
MIC90 [21]: 1 µg/mL (≈ 1.37 µM)
MIC90 [22]: 0.125 µg/mL (≈ 0.172 µM)
MIC90 [23]: 0.03 µg/mL (≈ 0.0412 µM)
MIC90 [24]: 0.25 µg/mL (≈ 0.343 µM)
MIC90 [25]: 0.25 µg/mL (≈ 0.343 µM)
MIC90 [26]: 0.125 µg/mL (≈ 0.172 µM)
MIC90 [27]: 0.25 µg/mL (≈ 0.343 µM)
MIC90 [28]: 0.5 µg/mL (≈ 0.686 µM)
MIC90 [29]: 0.25 µg/mL (≈ 0.343 µM)
MIC90 [30]: 0.03 µg/mL (≈ 0.0412 µM)
MIC90 [31]: 0.06 µg/mL (≈ 0.0823 µM)
MIC90 [32]: 2 µg/mL (≈ 2.74 µM)
MIC90 [33]: 0.25 µg/mL (≈ 0.343 µM)
MIC90 [34]: 0.5 µg/mL (≈ 0.686 µM)
MIC90 [35]: 0.06 µg/mL (≈ 0.0823 µM)
MIC90 [36]: 0.5 µg/mL (≈ 0.686 µM)
MIC90 [37]: 0.125 µg/mL (≈ 0.172 µM)
MIC90 [38]: 0.125 µg/mL (≈ 0.172 µM)
MIC90 [39]: 0.03 µg/mL (≈ 0.0412 µM)
MIC90 [40]: 0.06 µg/mL (≈ 0.0823 µM)
MIC90 [41]: 0.5 µg/mL (≈ 0.686 µM)
MIC90 [42]: 0.25 µg/mL (≈ 0.343 µM)
MIC90 [43]: 0.06 µg/mL (≈ 0.0823 µM)
MIC90 [44]: 0.03 µg/mL (≈ 0.0412 µM)
MIC90 [45]: 0.25 µg/mL (≈ 0.343 µM)
MIC90 [46]: 0.06 µg/mL (≈ 0.0823 µM)
MIC90 [47]: 0.125 µg/mL (≈ 0.172 µM)
MIC90 [48]: 0.03 µg/mL (≈ 0.0412 µM)
MIC90 [49]: 0.06 µg/mL (≈ 0.0823 µM)
MIC90 [50]: 4 µg/mL (≈ 5.49 µM)
MIC90 [51]: 0.125 µg/mL (≈ 0.172 µM)
Structure (SMILES): C[C@H]1[C@H](NC(=O)/C(=N\OC(C)(C)C(=O)O)c2csc(N)n2)C(=O)N1C(=O)NS(=O)(=O)n1nc(-c2cc(=O)c(O)c[nH]2)n(C[C@@H](O)CO)c1=O
